# Test results: PMC9604775, “Bioactive Peptides from Skipjack Tuna Cardiac Arterial Bulbs: Preparation, Identification, Antioxidant Activity, and Stability against Thermal, pH, and Simulated Gastrointestinal Digestion Treatments” (Marine Drugs, 2022)
# Where two headings read alike, the source gives them in different places. Where a SMILES comes first, the peptide text is derived from it. Where no end group is shown, it is not given here.
# Experiments:
# H2O2-damaged HepG2 cells = type: cell-based
# Protocol: The assay was carried out according to the method described by Hu et al., and the H2O2 concentration of 300 µM was applied to establish the oxidative damage model of HepG2 cells. Briefly, the HepG2 cells with density of 1 × 10^5 cells/well were incubated in a 96-well plate for 24 h. The supernatant in the 96-well plate was aspirated and 100 µL of peptide samples (50.0, 100.0, or 200.0 µM, respectively) were added into the protection groups respectively for incubating 8 h. After removing peptides, H2O2 with the final concentration of 300 µM was joined in the protection and model groups. After incubating for 24 h, the wells were rinsed twice with PBS and the MTT with the final concentration of 0.5 mg/mL was added into. After incubating for 4 h, the formazan crystals formed by active cells were soluble in 150 µL of DMSO and OD570 nm of the solution was determined. Finally, the cell viability was calculated using the equation: Cell viability = (ODsample/ODcontrol) × 100%(2)
# [1] = Stability to simulated gastrointestinal digestion (DPPH· scavenging activity); type: in vitro ADME; conditions: two-stage model: pepsin 120 min then trypsin 120 min; 0 to 240 min; peptide 2.0 mg/mL; read-out DPPH· scavenging activity
# Protocol: The stability of TCP1 to TCP11 from tuna cardiac arterial bulbs was determined according to the previous method with a slight modification. The DPPH· scavenging activity (%) of TCP1 to TCP11 at 2.0 mg/mL were measured at the set conditions to evaluate their stability.
# The thermostability of TCP1 to TCP11 at 20, 40, 60, 80, or 100 °C for 60 min was analyzed in water bath. The influences of pH values of 3, 5, 7, 9, or 11 were employed to estimate the acid and alkali stability properties of TCP1 to TCP11 at 25 °C, and the detecting time was set to 60, 120, and 180 min, respectively. The influence of simulate GI digestion on the stability of TCP1 to TCP11 was evaluated by the two-stage digestion model. In short, APs (TCP1 to TCP11) were separately treated with pepsin for 120 min and trypsin for 120 min.
# [2] = peptide 200 μmol/L, 8 h pre-incubation, then 300 µM H2O2 for 24 h, MTT, model group 50.64 ± 2.43%, mean ± SD, n = 3
Compound,viability of H2O2-damaged HepG2 cells (H2O2-damaged HepG2 cells; [2]) [%],"viability of H2O2-damaged HepG2 cells (H2O2-damaged HepG2 cells; 8 h, 200 μmol/L) [%]",also measured
"CC(=O)N[C@@H](CS)C(=O)O [N-Acetyl-L-Cysteine (NAC), N-Acetyl-L-Cysteine]",90.06 ± 3.16,,
"NCCCC[C@H](NC(=O)[C@H](CCCCN)NC(=O)[C@@H]1CCCN1)C(=O)O [TCP3, Pro-Lys-Lys] (H-Pro-Lys-Lys-OH)",,81.26 ± 1.86,
"GEQSN [TCP2, Gly-Glu-Gln-Ser-Asn]",,,Declined percentage of DPPH· scavenging activity after simulated GI digestion [1]: 4.49%
"GPGLM [TCP9, Gly-Pro-Gly-Leu-Met]",,78.54 ± 3.06,
"YEGGD [TCP6, Tyr-Glu-Gly-Gly-Asp]",74.68 ± 1.69,,
